Legend:
HEK293 cells [1] = assay: Preliminary screening as DNA vectors, GFP transfection of HEK293 cells; assay type: cell-based; conditions: HEK293 cells; lipid/DOPE liposome with 75 ng plasmid DNA (psin-EGFP-IRES-Puro); number of cells expressing GFP divided by total number of nuclei (Hoechst)
How it was run: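 First, amino lipid and DOPE were vortexed in sodium acetate buffer (pH 5.6) to form liposomes. Next, these were held with 75 ng EGFP plasmid at room temperature for 30 min. Finally, HEK293 cells were added, cultured at 37° C., Hoechst-stained, and GFP+/total nuclei scored by imaging.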

HEK293 cells [2] = assay: Preliminary screening as mRNA vectors, EGFP mRNA transfection of HEK293 cells; assay type: cell-based; conditions: HEK293 cells, 96-well plates, EGFP mRNA 50 ng per well; percentage of GFP fluorescent cells relative to total number of cells (Hoechst)
How it was run: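 Screening format: EGFP mRNA transfection (50 ng/well) into HEK293 in 10% FBS-supplemented DMEM. Percent green fluorescent cells, normalised to Hoechst nuclear count, gave the value; Lipofectamine2000 was the reference transfectant.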

| SMILES | Absolute DNA transfection efficiency in HEK293 cells (HEK293 cells [1]) | Absolute mRNA transfection efficiency in HEK293 cells (HEK293 cells [2]) |
| --- | --- | --- |
| CCCCCCCCCCCCCCCNc1nc(NCCCCCCCC)nc(NCCN2CCOCC2)n1 [Compound N8N15D2] | 0.0% | 0.0% |
| CCCCCCCCCCCCCCCNc1nc(NCCCCCCCC)nc(NCCN2CCCC2)n1 [Compound N8N15D3] | 1.5% | 7.6% |
| CCCCCCCCCCCCCCCNc1nc(NCCCCCCCC)nc(NCCN2CCCCC2)n1 [Compound N8N15D4] | 0.5% | 0.0% |
| CCCCCCCCCCCCCCCNc1nc(NCCCCCCCC)nc(NCCN2CCN(C)CC2)n1 [Compound N8N15D5] | 0.6% | 0.2% |
| CCCCCCCCCCCCCCCNc1nc(NCCCCCCCC)nc(NCCCN(C)C)n1 [Compound N8N15D6] | 1.3% | 0.0% |
| CCCCCCCCCCCCCCCNc1nc(NCCCCCCCC)nc(NCCN(CC)CC)n1 [Compound N8N15D7] | 0.0% | 0.0% |
| CCCCCCCCCCCCCCCNc1nc(NCCCCCCCC)nc(NCCCN2CCOCC2)n1 [Compound N8N15D8] | 1.1% | 0.3% |
| CCCCCCCCCCCCCCCNc1nc(NCCCCCCCC)nc(NCCCN2CCN(C)CC2)n1 [Compound N8N15D9] | 0.0% | 0.1% |
| CCCCCCCCCCCCCCCNc1nc(NCCCCCCCC)nc(NCC2CCN(C)CC2)n1 [Compound N8N15D10] | 3.2% | 3.3% |
| CCCCCCCCCCCCCCCCNc1nc(NCCCCCCCC)nc(NCCN(C)C)n1 [Compound N8N16D1] | 3.8% | 4.6% |
| CCCCCCCCCCCCCCCCNc1nc(NCCCCCCCC)nc(NCCN2CCOCC2)n1 [Compound N8N16D2] | 0.8% | 0.2% |
| CCCCCCCCCCCCCCCCNc1nc(NCCCCCCCC)nc(NCCN2CCCC2)n1 [Compound N8N16D3] | 8.5% | 13.8% |
| CCCCCCCCCCCCCCCCNc1nc(NCCCCCCCC)nc(NCCN2CCCCC2)n1 [Compound N8N16D4] | 5.3% | 2.3% |
| CCCCCCCCCCCCCCCCNc1nc(NCCCCCCCC)nc(NCCN2CCN(C)CC2)n1 [Compound N8N16D5] | 0.2% | 0.3% |
| CCCCCCCCCCCCCCCCNc1nc(NCCCCCCCC)nc(NCCCN(C)C)n1 [Compound N8N16D6] | 2.4% | 1.5% |
| CCCCCCCCCCCCCCCCNc1nc(NCCCCCCCC)nc(NCCN(CC)CC)n1 [Compound N8N16D7] | 3.1% | 0.3% |
| CCCCCCCCCCCCCCCCNc1nc(NCCCCCCCC)nc(NCCCN2CCOCC2)n1 [Compound N8N16D8] | 2.3% | 0.2% |
| CCCCCCCCCCCCCCCCNc1nc(NCCCCCCCC)nc(NCCCN2CCN(C)CC2)n1 [Compound N8N16D9] | 1.0% | 0.5% |
| CCCCCCCCCCCCCCCCNc1nc(NCCCCCCCC)nc(NCC2CCN(C)CC2)n1 [Compound N8N16D10] | 3.4% | 1.5% |
| CCCCCCCCCCCCCCCCCCNc1nc(NCCCCCCCC)nc(NCCN(C)C)n1 [Compound N8N18D1] | 1.8% | 6.4% |
| CCCCCCCCCCCCCCCCCCNc1nc(NCCCCCCCC)nc(NCCN2CCOCC2)n1 [Compound N8N18D2] | 1.7% | 7.0% |
| CCCCCCCCCCCCCCCCCCNc1nc(NCCCCCCCC)nc(NCCN2CCCC2)n1 [Compound N8N18D3] | 9.8% | 39.9% |
| CCCCCCCCCCCCCCCCCCNc1nc(NCCCCCCCC)nc(NCCN2CCCCC2)n1 [Compound N8N18D4] | 8.2% | 29.2% |
| CCCCCCCCCCCCCCCCCCNc1nc(NCCCCCCCC)nc(NCCN2CCN(C)CC2)n1 [Compound N8N18D5] | 1.9% | 0.9% |
| CCCCCCCCCCCCCCCCCCNc1nc(NCCCCCCCC)nc(NCCCN(C)C)n1 [Compound N8N18D6] | 2.2% | 4.1% |

| SMILES | Absolute DNA transfection efficiency in HEK293 cells (HEK293 cells [1]) | Absolute mRNA transfection efficiency in HEK293 cells (HEK293 cells [2]) |
| --- | --- | --- |
| CCCCCCCCCCCCCCCCCCNc1nc(NCCCCCCCC)nc(NCCN(CC)CC)n1 [Compound N8N18D7] | 2.7% | 9.3% |
| CCCCCCCCCCCCCCCCCCNc1nc(NCCCCCCCC)nc(NCCCN2CCOCC2)n1 [Compound N8N18D8] | 1.3% | 2.8% |
| CCCCCCCCCCCCCCCCCCNc1nc(NCCCCCCCC)nc(NCCCN2CCN(C)CC2)n1 [Compound N8N18D9] | 1.2% | 0.0% |
| CCCCCCCCCCCCCCCCCCNc1nc(NCCCCCCCC)nc(NCC2CCN(C)CC2)n1 [Compound N8N18D10] | 1.4% | 5.0% |
| CCCCCCCCCNc1nc(NCCCCCCCCC)nc(NCCN(C)C)n1 [Compound N9N9D1] | 0.2% | 0.5% |
| CCCCCCCCCNc1nc(NCCCCCCCCC)nc(NCCN2CCOCC2)n1 [Compound N9N9D2] | 0.0% | 0.1% |
| CCCCCCCCCNc1nc(NCCCCCCCCC)nc(NCCN2CCCC2)n1 [Compound N9N9D3] | 0.3% | 0.2% |
| CCCCCCCCCNc1nc(NCCCCCCCCC)nc(NCCN2CCCCC2)n1 [Compound N9N9D4] | 0.0% | 0.6% |
| CCCCCCCCCNc1nc(NCCCCCCCCC)nc(NCCN2CCN(C)CC2)n1 [Compound N9N9D5] | 0.0% | 0.1% |
| CCCCCCCCCNc1nc(NCCCCCCCCC)nc(NCCCN(C)C)n1 [Compound N9N9D6] | 0.2% | 0.4% |
| CCCCCCCCCNc1nc(NCCCCCCCCC)nc(NCCN(CC)CC)n1 [Compound N9N9D7] | 0.0% | 0.3% |
| CCCCCCCCCNc1nc(NCCCCCCCCC)nc(NCCCN2CCOCC2)n1 [Compound N9N9D8] | 0.0% | 0.6% |
| CCCCCCCCCNc1nc(NCCCCCCCCC)nc(NCCCN2CCN(C)CC2)n1 [Compound N9N9D9] | 0.0% | 0.2% |
| CCCCCCCCCNc1nc(NCCCCCCCCC)nc(NCC2CCN(C)CC2)n1 [Compound N9N9D10] | 0.0% | 0.8% |
| CCCCCCCCCCCNc1nc(NCCCCCCCCC)nc(NCCN(C)C)n1 [Compound N9N11D1] | 0.0% | 2.2% |
| CCCCCCCCCCCNc1nc(NCCCCCCCCC)nc(NCCN2CCOCC2)n1 [Compound N9N11D2] | 0.0% | 0.3% |
| CCCCCCCCCCCNc1nc(NCCCCCCCCC)nc(NCCN2CCCC2)n1 [Compound N9N11D3] | 0.0% | 1.8% |
| CCCCCCCCCCCNc1nc(NCCCCCCCCC)nc(NCCN2CCCCC2)n1 [Compound N9N11D4] | 0.0% | 0.0% |
| CCCCCCCCCCCNc1nc(NCCCCCCCCC)nc(NCCN2CCN(C)CC2)n1 [Compound N9N11D5] | 0.0% | 1.1% |
| CCCCCCCCCCCNc1nc(NCCCCCCCCC)nc(NCCCN(C)C)n1 [Compound N9N11D6] | 0.0% | 0.5% |
| CCCCCCCCCCCNc1nc(NCCCCCCCCC)nc(NCCN(CC)CC)n1 [Compound N9N11D7] | 0.0% | 0.8% |
| CCCCCCCCCCCNc1nc(NCCCCCCCCC)nc(NCCCN2CCOCC2)n1 [Compound N9N11D8] | 0.0% | 0.4% |
| CCCCCCCCCCCNc1nc(NCCCCCCCCC)nc(NCCCN2CCN(C)CC2)n1 [Compound N9N11D9] | 0.0% | 0.7% |
| CCCCCCCCCCCNc1nc(NCCCCCCCCC)nc(NCC2CCN(C)CC2)n1 [Compound N9N11D10] | 0.0% | 0.0% |
